Measured values reported in patent publication US20210261538A1, “PROTEIN ARGININE METHYLTRANSFERASE 5 (PRMT5) DEGRADATION / DISRUPTION COMPOUNDS AND METHODS OF USE” (ICAHN SCHOOL OF MEDICINE AT MOUNT SINAI, priority 2018, published 2021).
Entries after “also recorded” stand apart in the source; their conditions may differ.

Columns and labels:
PRMT5 substrates = experiment: Arginine symmetric dimethylation (SDMA Western blot) in MCF-7 cells; format: cell-based
Method: (§1) MCF-7 cells, HEK293T cells and HeLa cells were cultured in Dulbecco's Modified Eagle Medium (DMEM) supplemented with 10% fetal bovine serum (FBS) in 5% CO2 at 37° C. Jurkat cells were cultured in RPMI 1640 medium supplemented with 10% FBS in 5% CO2 at 37° C. H2171 cells were cultured in HITES medium supplemented with 10% FBS in 5% CO2 at 37° C. HCT116 were cultured in McCoy's 5A medium supplemented with 10% fetal bovine serum (FBS) in 5% CO2 at 37° C. All the cells lines were treated with 5 μM (or indicated concentration) of PRMT5 inhibitor (EPZ015666) or degraders, or equivalent volume of DMSO for 6 days (or indicated time points). Fresh compounds were constituted in medium and used for every 2 days. The antibodies used in this study are: PRMT5 antibody (Active Motif), (3-actin antibody (Sigma), SDMA antibody (collaboration with Cell Signaling Technologies). Cell cultures were harvested at the end of compound treatments and applied subjected to western blotting assay. Briefly, cells were washed with PBS and lysed with RIPA lysis buffer for 20 minutes on ice. Then lysates were centrifuged and the clear supernatant were collected. SDS loading buffer was added to the lysates and then the mixture was boiled at 100° C. for 5 minutes. Samples were loaded to 10% or 12% SDS-PAGE gel and ran at 120V for 1.5 hours. Then the proteins were transferred to PVDF membrane and blocked in 5% milk fat at room temperature for 1 hour. Then the membranes were incubated with indicated antibodies at 4° C. overnight. Membranes were washed with PBST buffer three times for 10 minutes each time and incubated with HRP-conjugated (horse radish peroxidase) secondary antibodies at room temperature for 1 hour. Again the membranes were washed with PBST buffer three times for 10 minutes each time. Finally, the indicated proteins on the membranes were visualized with ECL (enhanced chemiluminescence) reagents. MCF-7 cells were treated with EPZ015666 or YS43-22 at indicated compound concentrations (μM) for 6 days.

PRMT5 = PRMT5 (Homo sapiens, UniProt O14744); experiment: Western blot of PRMT5 protein levels in H2171 cells; format: cell-based; parameters: endogenous in cells; settings: 5 μM, 6 days
Method: as §1, with “Then the proteins were transferred to PVDF membrane and blocked in 5% milk fat at room temperature for 1 hour. Then the membranes were incubated with indicated antibodies at 4° C. overnight. Membranes were washed with PBST buffer three times for 10 minutes each time and incubated with HRP-conjugated (horse radish peroxidase) secondary antibodies at room temperature for 1 hour. Again the membranes were washed with PBST buffer three times for 10 minutes each time. Finally, the indicated proteins on the membranes were visualized with ECL (enhanced chemiluminescence) reagents. MCF-7 cells were treated with EPZ015666 or YS43-22 at indicated compound concentrations (μM) for 6 days.” left out

Sequence of PRMT5 (O14744 whole entry): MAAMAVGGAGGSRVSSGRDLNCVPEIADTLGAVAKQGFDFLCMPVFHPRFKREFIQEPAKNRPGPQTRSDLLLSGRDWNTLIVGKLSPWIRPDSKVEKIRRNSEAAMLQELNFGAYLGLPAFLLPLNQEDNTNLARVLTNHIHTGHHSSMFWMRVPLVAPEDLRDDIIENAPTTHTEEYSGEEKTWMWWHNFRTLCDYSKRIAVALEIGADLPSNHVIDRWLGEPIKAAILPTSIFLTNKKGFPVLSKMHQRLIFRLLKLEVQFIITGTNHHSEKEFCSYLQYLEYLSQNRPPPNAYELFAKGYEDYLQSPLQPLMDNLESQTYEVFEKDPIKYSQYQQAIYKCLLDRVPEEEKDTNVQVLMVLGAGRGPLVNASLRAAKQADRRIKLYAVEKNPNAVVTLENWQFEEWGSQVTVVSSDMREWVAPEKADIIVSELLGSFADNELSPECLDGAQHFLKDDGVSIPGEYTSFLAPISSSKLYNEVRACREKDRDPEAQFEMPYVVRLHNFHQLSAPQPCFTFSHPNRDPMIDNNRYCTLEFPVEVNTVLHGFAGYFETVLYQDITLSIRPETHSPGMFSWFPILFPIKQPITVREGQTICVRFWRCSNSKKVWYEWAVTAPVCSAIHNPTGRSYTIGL
Sequence of PRMT5 (Q9BQA1 whole entry partner): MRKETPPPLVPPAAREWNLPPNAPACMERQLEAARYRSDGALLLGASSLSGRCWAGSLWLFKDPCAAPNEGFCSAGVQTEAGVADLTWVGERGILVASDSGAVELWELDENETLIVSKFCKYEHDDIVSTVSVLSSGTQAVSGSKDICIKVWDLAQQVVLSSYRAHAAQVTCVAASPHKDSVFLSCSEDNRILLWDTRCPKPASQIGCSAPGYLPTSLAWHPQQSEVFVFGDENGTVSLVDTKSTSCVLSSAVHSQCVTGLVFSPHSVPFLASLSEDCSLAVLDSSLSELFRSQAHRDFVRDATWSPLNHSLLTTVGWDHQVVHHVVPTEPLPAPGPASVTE

Compound: Cc1ncsc1-c1ccc([C@H](C)NC(=O)[C@@H]2C[C@@H](O)CN2C(=O)[C@@H](NC(=O)COCCOCCOCCOCCOCC(=O)N2CC(Nc3cc(C(=O)NC[C@H](O)CN4CCc5ccccc5C4)ncn3)C2)C(C)(C)C)cc1 [YS43-22, N-((S)-3-(3,4-dihydroisoquinolin-2(1H)-yl)-2-hydroxypropyl)-6-((1-((S)-19-((2S,4R)-4-hydroxy-2-(((S)-1-(4-(4-methylthiazol-5-yl)phenyl)ethyl)carbamoyl)pyrrolidine-1-carbonyl)-20,20-dimethyl-17-oxo-3,6,9,12,15-pentaoxa-18-azahenicosanoyl)azetidin-3-yl)amino)pyrimidine-4-carboxamide]
- suppressing PRMT5 activity (PRMT5 substrates; MCF-7 cells (Examples 90-92)): especially effective
- inhibition of arginine symmetric dimethylation (PRMT5 substrates; MCF-7 cells, indicated concentrations (μM), 6 days): significantly inhibited; also recorded: significant inhibition
- PRMT5 protein levels (PRMT5): not obviously
